Assay results as given in patent publication EP4772505A1, “COMPOUND FOR DEGRADING ANDROGEN RECEPTOR AND MEDICAL USE THEREOF” (Ubix Therapeutics, Inc., priority 2023, dated 2025).
Like-named read-outs stand apart in the source and are kept apart here.

Assay: Plasma and tumor tissue concentrations following oral administration in VCaP xenograft model (HPLC/MS/MS)
Assay type: in vivo, mice
Settings: mouse, 10 mg/kg orally once daily for 3 days
Method: The plasma and tumor tissue concentrations of the drug administered orally to a xenograft model using VCaP cells were analyzed as follows.
[Blood collection and tumor tissue extraction] The prepared drug was administered orally at a dose of 10 mg/kg once daily at the same time for 3 days. The mice were sacrificed 2, 6, and 24 hours after the last administration. Blood collection and tumor tissue extraction were performed immediately after sacrifice at each hour. Blood collected from the heart was placed in a K2EDTA tube for 30 minutes and then centrifuged at 15,000 rpm at 4°C for 10 minutes. The supernatant plasma was separated and stored at -20°C for analysis. The extracted tumor tissue was washed in PBS, cut into pieces of approximately 10 mg, and stored at -80°C for analysis.
[Sample Preparation] Cancer tissue was homogenized once at 5,500 rpm for 20 seconds after adding distilled water 9 times the tissue weight using a tissue homogenizer (Precellys Evolution, Bertin Technology). For cancer tissue, 20 µL of the homogenate was mixed with 20 µL of blank plasma sample, 20 µL of internal standard (carbamazepine, 30 ng/mL in acetonitrile), and 140 µL of acetonitrile. For plasma, 20 µL of the plasma sample was mixed with 20 µL of blank liver tissue sample, 20 µL of internal standard, and 140 µL of acetonitrile. Afterwards, the mixed sample was suspended for 10 minutes using a vortex mixer and centrifuged at 13,500 rpm for 10 minutes at room temperature. 140 µL of the supernatant was collected and transferred to an analysis container.
[Sample Analysis] Drug concentrations in cancer tissue and plasma samples were quantified using an HPLC/MS/MS system. 5 µL of the sample prepared in the analytical vessel was injected into the HPLC/MS/MS system for analysis. For drug quantification, a combination of 0.1% formic acid in distilled water and 0.1% formic acid in acetonitrile was used as the mobile phase. The analytical column used was a reverse-phase C18 column, and chromatograms were analyzed using isocratic elution. Ion detection was performed in ESI positive MRM mode, and peak integration was performed using Analyst software version 1.6.4 (Applied Biosystems/MDS SCIEX). Drug concentrations in cancer tissue were calculated by multiplying the concentrations obtained from the analysis of cancer tissue homogenate by a dilution factor of 10.

Work on `N#Cc1ccc(N2CCC(C(=O)Nc3ccc(OC4CCN(CC5CCN(c6ccc(N[C@H]7CCC(=O)NC7=O)cc6F)CC5)CC4)cn3)CC2)cc1C(F)(F)F` [Example 2, (S)-1-(4-cyano-3-(trifluoromethyl)phenyl)-N-(5-((1-((1-(4-((2,6-dioxopiperidin-3-yl)amino)-2-fluorophenyl)piperidin-4-yl)methyl)piperidin-4-yl)oxy)pyridin-2-yl)piperidine-4-carboxamide] yielded a concentration at 2 h (plasma, 2 hours after the last administration, read-out: Concentration in Plasma) of 816 ng/mL, a concentration at 6 h (plasma, 6 hours after the last administration, read-out: Concentration in Plasma) of 610 ng/mL and a concentration at 24 h (plasma, 24 hours after the last administration, read-out: Concentration in Plasma) of 51 ng/mL. It also gave a Kp at 2 h (tumor tissue / plasma, 2 hours after the last administration, read-out: Tissue to Plasma Ratio) of 6.78, a Kp at 6 h (tumor tissue / plasma, 6 hours after the last administration, read-out: Tissue to Plasma Ratio) of 10.1 and a Kp at 24 h (tumor tissue / plasma, 24 hours after the last administration, read-out: Tissue to Plasma Ratio) of 16.3. For the same molecule, the concentration at 2 h (tumor tissue, 2 hours after the last administration, read-out: Concentration in Tumor Tissue) was 5560 ng/g, the concentration at 6 h (tumor tissue, 6 hours after the last administration, read-out: Concentration in Tumor Tissue) was 6130 ng/g and the concentration at 24 h (tumor tissue, 24 hours after the last administration, read-out: Concentration in Tumor Tissue) was 834 ng/g.
